Assay results published in ChEMBL document CHEMBL5036329, “4-Methyl-1,2,3-Triazoles as N-Acetyl-Lysine Mimics Afford Potent BET Bromodomain Inhibitors with Improved Selectivity” (J Med Chem, 2021).
pKd: −log10 of the molar value.

Columns and labels:
[1] = Microsomal stability in human liver microsomes assessed as fraction unbound measured upto 60 mins in presence of NADPH regenerating system by LC-MS analysis; type: ADME, Microsome; details: 1 h
[2] = biological target: T1, Bromodomain testis-specific protein (Homo sapiens, UniProt Q58F21); assay: Binding affinity to human partial length BRDT BD1 expressed in bacterial expression system assessed as dissociation constant by BROMOscan assay
[3] = biological target: T2, Bromodomain-containing protein 3 (Homo sapiens, UniProt Q15059); assay: Binding affinity to human partial length BRD3 BD2 expressed in bacterial expression system assessed as dissociation constant by BROMOscan assay
[4] = biological target: T2, Bromodomain-containing protein 3; assay: Binding affinity to human partial length BRD3 BD1 expressed in bacterial expression system assessed as dissociation constant by BROMOscan assay
[5] = biological target: T1, Bromodomain testis-specific protein; assay: Binding affinity to human partial length BRDT BD2 expressed in bacterial expression system assessed as dissociation constant by BROMOscan assay

T2 sequence (Q15059 whole entry): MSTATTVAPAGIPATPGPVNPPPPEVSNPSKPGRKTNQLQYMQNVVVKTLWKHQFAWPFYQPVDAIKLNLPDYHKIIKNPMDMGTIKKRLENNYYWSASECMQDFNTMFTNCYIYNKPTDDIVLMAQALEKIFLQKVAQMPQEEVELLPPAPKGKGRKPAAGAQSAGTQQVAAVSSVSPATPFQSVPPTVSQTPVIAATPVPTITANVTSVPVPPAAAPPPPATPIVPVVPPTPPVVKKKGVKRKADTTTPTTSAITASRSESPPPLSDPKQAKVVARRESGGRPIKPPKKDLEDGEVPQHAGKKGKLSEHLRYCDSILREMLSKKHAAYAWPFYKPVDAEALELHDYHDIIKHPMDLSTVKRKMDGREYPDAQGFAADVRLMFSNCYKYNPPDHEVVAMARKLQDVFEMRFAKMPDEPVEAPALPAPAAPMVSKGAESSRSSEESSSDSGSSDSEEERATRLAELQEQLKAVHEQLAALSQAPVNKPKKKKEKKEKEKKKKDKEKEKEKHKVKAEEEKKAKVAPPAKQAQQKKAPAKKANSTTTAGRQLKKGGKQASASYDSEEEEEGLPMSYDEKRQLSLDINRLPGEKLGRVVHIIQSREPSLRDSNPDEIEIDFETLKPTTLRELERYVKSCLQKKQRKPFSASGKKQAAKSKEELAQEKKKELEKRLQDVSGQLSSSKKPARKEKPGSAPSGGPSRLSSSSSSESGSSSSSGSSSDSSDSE

Row | Fu [1] | Structure (SMILES) | further results
1 | 0.13 | Cc1cc(C)cc(Oc2cccc(-c3c(C)nnn3C3CCNCC3)n2)c1 | –
2 | 0.08 | Cc1cc(C)cc(Nc2nccc(-c3c(-c4ccc(C(F)(F)F)cc4)ncn3C3CCN(CCN)CC3)n2)c1 | –
3 | 0.13 | Cc1nnn(C2CCN(CCN(C)C)CC2)c1-c1cccc(Oc2cc(Br)ccc2Br)n1 | –
4 | 0.14 | Cc1cc(C)cc(Oc2cccc(-c3c(C)nnn3C3CCN(CCN(C)C)CC3)n2)c1 | pKd [2]: 7.82; pKd [3]: 6.51; pKd [4]: 7.70; pKd [5]: 6.60
5 | 0.12 | Cc1nnn(C2CCNCC2)c1-c1cccc(Oc2cc(C3CC3)cc(C3CC3)c2)n1 | –
6 | 0.11 | Cc1nnn(C2CCNCC2)c1-c1cccc(Oc2cc(Cl)cc(Cl)c2)n1 | –
7 | 0.09 | Cc1nnn(C2CCNCC2)c1-c1cccc(Oc2cc(Br)cc(Br)c2)n1 | –
